According to patent US20260027243A1, “AMPHIPHILIC COMPOUNDS FOR ATTENUATING NEUROTOXICITY OF AMYLOID-beta OLIGOMERS AND DIAGNOSTIC METHODS” (THE BOARD OF TRUSTEES OF THE UNIVERSITY OF ILLINOIS, priority 2022, published 2026):
Like-named read-outs stand apart in the source and are kept apart here.

What was measured:
Aβ42 oligomers = target: T1, Aβ42 oligomers (Homo sapiens, UniProt P05067); test: Fluorescence saturation binding assay with Aβ42 oligomers; settings: for Kd: read-out: Kd, Oligomers
T1 construct: commercial Aβ42 monomer powder (from GL biochem); purchased GL biochem
T1 sequence (P05067 672-713 limits assumed): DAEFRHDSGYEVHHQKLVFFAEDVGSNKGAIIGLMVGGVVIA
Experimental: Aβ42 oligomers: The 0.5 mg monomeric films were dissolved in 1.1 mL PBS buffer (with final DMSO concentration less than 1%) and incubated at 4° C. overnight. The resulting solution was then centrifuged at 3000 rpm for 15 mins to remove the insoluble aggregates. The clear supernatant was then used for the following experiments. Aβ42 oligomers concentration was checked by measuring the absorbance of the supernatant at 280 nm.
(§1) In Vitro Saturation Binding Studies with Aβ42 Fibrils and Aβ42 Oligomers. To a solution of increasing concentrations of compounds, a fixed concentration of the generated aggregated Aβ42 fibrils or Aβ42 oligomers solutions (5 to 15 NM) was added to yield a total volume of 100 μL. Nonspecific binding was determined […]. The mixture was incubated for 15 min at room temperature. All fluorescence data were obtained on a SpectraMax M2e plate reader (Molecular Devices). The fluorescent intensity was measured at the corresponding emission wavelength of each compound, and the Kd binding curves were generated by GraphPad Prism 8.0 with one site-specific binding model. Equation: Y=Bmax*X/(Kd+X).

Aβ42 fibrils = target: T2, Aβ42 fibrils (Homo sapiens, UniProt P05067); test: Fluorescence saturation binding assay with Aβ42 fibrils; settings: read-out: Kd, Fibrils
T2 construct: commercial Aβ42 monomer powder (from GL biochem); purchased GL biochem
T2 sequence (P05067 672-713 limits assumed): as above
Experimental: Preparation of the Aβ42 Fibrils and Aβ42 Oligomers. Aβ42 fibrils: 1 mg of commercial Aβ42 monomer powder (from GL biochem) was dissolved in 1 mL 1,1,1,3,3,3-hexafluoro-2-propanol (HFIP) at room temperature and incubated for 1 h. The resulting solution was divided equally into two Eppendorf tubes. The solution in each Eppendorf tube containing 0.5 mg Aβ42 monomer was then evaporated overnight and dried by vacuum centrifuge to generate monomeric films. […] Aβ42 fibrils solution was prepared by dissolving the 0.5 mg monomeric films in 1.1 mL PBS buffer (with final DMSO concentration less than 1%) and stirring at 37° C. for 3 days.
as §1

[1] = target: T3, native Aβ species in 5×FAD mice brain sections (Homo sapiens, UniProt P05067); test: Fluorescence staining of 5×FAD mice brain sections, colocalization; parameters: species or system mouse; settings: 5×FAD brain sections, compared with ThS
T3 construct: from tissue; host or cells: brain sections of 5×FAD transgenic mice
T3 sequence (P05067 672-713 limits assumed): as above
Experimental: Histological Staining of 5×FAD Mice Brain Sections. 5×FAD transgenic mice brain sections were blocked with bovine serum albumin (2% BSA in PBS, pH 7.4, 10 min). Then the mice brain sections were transferred to a PBS solution of the compound and incubated for 1 h. […] Then, the brain sections were treated with BSA again (5 min) followed by washing with PBS (3×2 min), DI water (3×2 min). Finally, the mice brain sections were mounted with non-fluorescent mounting media, and the images were obtained by using EVOS FL Auto 2. ImageJ Fiji program was used for colocalization analysis and determination of the Pearson's correlation coefficient. The primary antibodies were labeled with dye CF594 via Mix-n-Stain™ CF™ 594 Antibody Labeling Kit (Sigma Aldrich).

[2] = Log D by octanol-PBS partition; type: physicochemical; settings: DCM compounds
Experimental: Log D measurements. The Log D value was measured following a published procedure using slight modifications. In general, compounds in 0.5 mL octanol was subjected to partition with 0.5 mL octanol-saturated PBS. The whole mixture was stirred vigorously for 5 min, and centrifuged at 2,000 rpm for 5 min. The top octanol layer was separated for later fluorescence measurement. The remaining PBS layer was partitioned with 0.5 mL PBS-saturated octanol, and the second top octanol layer was then separated after vigorous stirring and centrifuging at 2,000 rpm for another 5 min. The two octanol layers' fluorescence spectra were recorded. The log D value was calculated by the fluorescence intensity ratio at the compounds' emission wavelength for the above two octanol extractions.

[3] = test system: interactions between Cu-Aβ species and SH-SY5Y cell membranes; test: Confocal imaging of Cu-Aβ species binding to SH-SY5Y cell membranes; type: cell-based, human; settings: 5 μM Aβ monomers + Cu^2+ + compound, 48 h
Experimental: For monomers +Cu^2+ imaging: SH-5Y5Y were seeded as mentioned above, and cells were treated with DMSO as control group, 5 μM monomers, 5 μM (monomers +CuCl2) and 5 μM (monomers +CuCl2+compounds) respectively. After 48 h incubation, cells were treated and imaged the same way as mentioned above.

[4] = test system: Cu^2+-Aβ42-induced toxicity in Neuro2A cells; test: Cu2+-Aβ42-induced toxicity, Alamar blue cell viability; type: cell-based, mouse; settings: [Aβ42]=40 μM, [Cu^2+]=40 μM, compound 10 μM (ZY-12-OMe 5 μM)
Experimental: FIG. 6. Cell viability results upon incubation of Neuro2A cells with monomeric Aβ42 in the presence or absence of metal ions and amphiphilic compounds. Concentrations: [Aβ42]=40 μM, [Cu^2+]=40 μM, [ZY-12-MT]=[ZY-15-OMe]=[ZY-15-MT]=[ZY-17-MT]=[ZY-5-OMe]=[ZY-5-MT]=[ZY-5-DT]=10 μM, [ZY-12-OMe]=5 μM. The error bars represent the standard deviation from five independent experiments, and the statistical analysis was evaluated according to one-way ANOVA (*p<0.05).
For the Cu^2+-Ap-induced toxicity studies, cells treated were monomeric Aβ42, Cu^2+, monomeric Aβ42+Cu^2+, and monomeric Aβ42+Cu^2++ compounds, respectively. After 40 h incubation, Alamar Blue solution (10 μL) was added, and the cells were incubated for another 90 min at 37° C. The fluorescence intensity of each well was measured at 590 nm (excitation wavelength=560 nm).

[5] = test system: interactions between Aβ oligomers and SH-SY5Y cell membranes; test: Confocal imaging of Aβ oligomers binding to SH-SY5Y cell membranes; type: cell-based, human; settings: 5 μM Aβ oligomers, 5 μM compound, 24 h
Experimental: (§2) Cell Imaging Procedures. For oligomers and fibrils imaging: Human neuroblastoma SH-SY5Y cells were grown with DMEM/10% FBS at 37° C. in a humidified atmosphere with 5% CO2, and an 8-well μ-slides (ibidi) chambered coverslip was seeded the SH-SY5Y cells. At about 80% confluency (24 h after seeding), the cells were treated with DMSO as control group, 5 μM oligomers/fibrils and 5 μM (oligomers/fibrils+ compounds), respectively. After 24 h incubation, the media was removed from each well. The cells were then fixed with 200 μL 3.7% formaldehyde for 15 min and blocked with 200 μL 3% BSA for 10 min. 3% BSA was then removed from the cells and replaced with 100 μL CF594-HJ 3.4 (1 μg/mL in 3% BSA). The cells were incubated with CF594-HJ 3.4 for 2 h at room temperature and were washed with PBS (5×100 μL). Before imaging, the cells in each well were stained with 100 μL NucBlue reagent (Thermo Fisher Scientific) for 15 min and mounted with non-fluorescent mounting media. 5-10 images of each well were taken, and the images were processed and analyzed by Fiji and Zeiss Zen lite software. Three individual replicates were conducted and subjected to the statistical analysis.

[6] = test system: interactions between Aβ fibrils and SH-SY5Y cell membranes; test: Confocal imaging of Aβ fibrils binding to SH-SY5Y cell membranes; type: cell-based, human; settings: 5 μM fibrils, 5 μM compound, 24 h
Experimental: as §2

Kd (Aβ42 oligomers; Table 3, DCM compounds) [nM] | Kd (Aβ42 fibrils; Table 3, DCM compounds) [nM] | logD [2] | Kd (Aβ42 oligomers; Table 1, amphiphilic compounds) [nM] | Kd (Aβ42 fibrils; Table 1, amphiphilic compounds) [nM] | Structure (SMILES) | binding affinity towards Aβ42 oligomers over fibrils (Aβ42 oligomers; DCM compounds) | region of Aβ aggregates bound [1] | Cu-Aβ species interactions with cell membranes [3] | effect on cell viability under Cu^2+-Aβ42 toxicity [4] | Aβ oligomers bound to cell membranes [5] | Aβ fibrils binding to cell membranes [6] | binding affinity to oligomers compared with fibrils (Kd comparison) (Aβ42 oligomers; amphiphilic ZY compounds)
230 ± 30 | 780 ± 110 | 1.13 ± 0.16 |  |  | CN1CCN(C)CCN(Cc2cc(/C=C/C=C/C3=CC(=C(C#N)C#N)c4ccccc4O3)ccc2O)CC1 [DCM-OH-2-MT, 2-(2-((1E,3E)-4-(3-((4,7-dimethyl-1,4,7-triazonan-1-yl)methyl)-4-hydroxyphenyl)buta-1,3-dien-1-yl)-4H-chromen-4-ylidene)malononitrile] | three times higher binding affinity towards Aβ42 oligomers over fibrils | bind to the peripheral region of the Aβ aggregates |  |  |  |  | 
 |  |  | 2030 ± 110 | 530 ± 30 | CN1CCN(C)CCN(Cc2cc(/C=C/c3ccc(-c4ccc(C=O)cc4)s3)ccc2O)CC1 [ZY-15-MT, (E)-4-(5-(3-((4,7-dimethyl-1,4,7-triazonan-1-yl)methyl)-4-hydroxystyryl)thiophen-2-yl)benzaldehyde] |  |  | significantly decreased interactions with cell membranes | significantly increase cell viability | fewer numbers of Aβ oligomers bound to the cell membranes | not able to significantly decrease the numbers of the Aβ fibrils binding to cell membranes | 
 |  |  | 470 ± 130 | 1240 ± 180 | COc1cc(/C=C/c2ccc(-c3ccc(C=O)cc3)s2)cc(CN2CCN(C)CCN(C)CC2)c1O [ZY-15-OMe, (E)-4-(5-(3-((4,7-dimethyl-1,4,7-triazonan-1-yl)methyl)-4-hydroxy-5-methoxystyryl)thiophen-2-yl)benzaldehyde] |  |  | significantly decreased interactions with cell membranes | significantly increase cell viability | fewer numbers of Aβ oligomers bound to the cell membranes | not able to significantly decrease the numbers of the Aβ fibrils binding to cell membranes | higher binding affinity to oligomers over fibrils
